46 compounds from ChEMBL document CHEMBL3593202, “Design, Synthesis, and Characterization of 3-(Benzylidene)indolin-2-one Derivatives as Ligands for α-Synuclein Fibrils” (J Med Chem, 2015) can be followed below.

The target of data set [1] is T1, Alpha-synuclein (Homo sapiens, UniProt P37840). Put plainly: Displacement of Thio-T from recombinant alpha-synuclein (unknown origin) expressed in Escherichia coli after 1.5 hrs by fluorescence assay.
For data set [2], the target named is T2, Microtubule-associated protein tau (Homo sapiens, UniProt P10636). Put plainly: Displacement of Thio-T from human recombinant tau (243 to 375) expressed in Escherichia coli BL21(DE3)RIL after 1.5 hrs by fluorescence assay.
T2 sequence (P10636 whole entry): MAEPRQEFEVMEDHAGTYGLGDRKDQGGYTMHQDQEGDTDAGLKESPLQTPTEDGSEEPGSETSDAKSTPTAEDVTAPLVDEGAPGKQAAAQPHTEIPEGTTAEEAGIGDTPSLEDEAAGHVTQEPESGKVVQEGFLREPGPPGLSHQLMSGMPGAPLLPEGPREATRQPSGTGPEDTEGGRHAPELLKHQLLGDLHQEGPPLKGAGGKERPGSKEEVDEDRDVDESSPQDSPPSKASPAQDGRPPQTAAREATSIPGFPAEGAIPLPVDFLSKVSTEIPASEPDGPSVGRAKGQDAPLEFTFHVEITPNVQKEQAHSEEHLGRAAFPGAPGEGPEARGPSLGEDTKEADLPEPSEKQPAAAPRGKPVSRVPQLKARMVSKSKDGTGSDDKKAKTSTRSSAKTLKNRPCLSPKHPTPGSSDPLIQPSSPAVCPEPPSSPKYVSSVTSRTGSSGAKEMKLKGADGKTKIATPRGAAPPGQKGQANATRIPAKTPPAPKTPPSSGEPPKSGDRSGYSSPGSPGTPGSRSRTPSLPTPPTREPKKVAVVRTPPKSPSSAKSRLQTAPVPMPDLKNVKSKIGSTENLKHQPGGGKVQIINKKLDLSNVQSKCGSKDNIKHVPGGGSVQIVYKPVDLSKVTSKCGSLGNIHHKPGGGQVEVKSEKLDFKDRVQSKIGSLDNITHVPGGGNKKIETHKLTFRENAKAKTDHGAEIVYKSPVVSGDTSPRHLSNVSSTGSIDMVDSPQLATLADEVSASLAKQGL
The target of data set [3] is T3, Amyloid-beta precursor protein (Homo sapiens, UniProt P05067). Put plainly: Displacement of Thio-T from synthetic amyloid beta (1 to 42) (unknown origin) after 1.5 hrs by fluorescence assay.
T3 sequence (P05067 whole entry): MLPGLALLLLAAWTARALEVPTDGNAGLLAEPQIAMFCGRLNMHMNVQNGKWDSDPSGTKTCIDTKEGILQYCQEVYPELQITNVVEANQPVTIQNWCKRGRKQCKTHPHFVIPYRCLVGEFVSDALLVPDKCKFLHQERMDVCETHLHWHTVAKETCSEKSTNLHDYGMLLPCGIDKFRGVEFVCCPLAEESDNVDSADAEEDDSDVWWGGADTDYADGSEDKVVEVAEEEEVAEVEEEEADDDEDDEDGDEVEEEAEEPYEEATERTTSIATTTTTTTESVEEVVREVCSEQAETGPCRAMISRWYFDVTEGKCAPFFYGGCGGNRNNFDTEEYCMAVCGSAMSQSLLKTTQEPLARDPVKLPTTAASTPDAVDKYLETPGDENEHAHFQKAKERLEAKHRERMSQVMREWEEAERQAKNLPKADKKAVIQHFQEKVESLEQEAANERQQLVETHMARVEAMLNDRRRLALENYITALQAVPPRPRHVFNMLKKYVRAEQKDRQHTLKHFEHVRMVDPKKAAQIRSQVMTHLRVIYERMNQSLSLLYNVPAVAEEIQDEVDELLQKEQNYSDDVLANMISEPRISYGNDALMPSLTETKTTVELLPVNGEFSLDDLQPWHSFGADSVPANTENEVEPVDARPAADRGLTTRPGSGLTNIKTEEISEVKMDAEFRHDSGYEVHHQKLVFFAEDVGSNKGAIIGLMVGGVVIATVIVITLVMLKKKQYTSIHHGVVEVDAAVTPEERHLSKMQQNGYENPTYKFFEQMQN
Data set [4] has as its target T3, Amyloid-beta precursor protein. Put plainly: Binding affinity to amyloid beta in alzheimer's diseased human brain tissue at 5 uM after 20 mins by fluorescence microscopic analysis.
Data set [5] in a line: Lipophilicity, log P of the compound. In kind it is physicochemical. The settings on record: octanol/water.
The target in data set [6] is T1, Alpha-synuclein. Put plainly: Binding affinity to recombinant alpha-synuclein (unknown origin) expressed in Escherichia coli after 1 hr by scintillation counting.
The target of data set [7] is T3, Amyloid-beta precursor protein. Put plainly: Binding affinity amyloid beta (1 to 42) (unknown origin) expressed in Escherichia coli after 1 hr by scintillation counting.
Data set [8] concerns the target T2, Microtubule-associated protein tau. Put plainly: Binding affinity human recombinant tau (243 to 375) expressed in Escherichia coli BL21(DE3)RIL after 1 hr by scintillation counting.

Active and inactive are the calls of the source. The rule behind the calls is not given here.

As for `COc1cccc(CN2C(=O)/C(=C/C=C/c3ccc([N+](=O)[O-])cc3)c3ccccc32)c1`, the inhibition constant Ki on Alpha-synuclein [1] stood at 64.7 nM; in data set [2], 355 nM; in data set [3] it was 265 nM.

With `COc1ccc(CN2C(=O)/C(=C\C=C\c3ccc(N(C)C)cc3)c3cccnc32)cc1` (mixture of isomers), the figures for the Ki (at Alpha-synuclein [1]; in data set [2]; in data set [3]) were 29.8 nM, 204 nM and 107 nM, respectively.

On to `O=C1/C(=C\C=C\c2ccccc2)c2ccccc2N1Cc1ccccc1` (mixture of isomers), for which the inhibitory constant (Ki) on Alpha-synuclein [1] is 227 nM; in data set [2], 682 nM; in data set [3], 703 nM.

Turning to `Nc1ccc(/C=C/C=C2\C(=O)Nc3ccccc32)cc1` (mixture of isomers), the Ki on Alpha-synuclein [1] amounted to 44.8 nM; in data set [2], 38.3 nM; in data set [3], 50.8 nM.

Turning to `O=C1Nc2ccccc2/C1=C\c1ccc([N+](=O)[O-])cc1`, the values for the Ki (on Alpha-synuclein [1]; in data set [2]; in data set [3]) were 622 nM, 528 nM and 439 nM, respectively.

In the case of `O=C1/C(=C/C=C/c2ccc([N+](=O)[O-])cc2)c2ccccc2N1Cc1ccc(OCCF)cc1`, the Ki came to 76.1 nM on Alpha-synuclein [1], 456 nM in data set [2] and 125 nM in data set [3].

Regarding `CN(C)c1ccc(/C=C/C=C2\C(=O)N(c3ccccc3)c3ccccc32)cc1` (mixture of isomers), the values for the inhibition constant (Ki) (at Alpha-synuclein [1]; in data set [2]; in data set [3]) were 68.1 nM, 465 nM and 287 nM, respectively.

As to `CCOC(=O)N1C(=O)/C(=C\C=C\c2ccc(N(C)C)cc2)c2ccccc21` (mixture of isomers), the inhibition constant (Ki) stood at 45.3 nM at Alpha-synuclein [1], 263 nM in data set [2] and 84 nM in data set [3].

As to `CN(C)c1ccc(/C=C/C=C2\C(=O)Nc3ccccc32)cc1` (mixture of isomers), the Ki on Alpha-synuclein [1] is 40.7 nM; in data set [2] it was 53.7 nM; in data set [3] it was 27.6 nM. In addition, in data set [4], the result was Active.

In the case of `CN(C)c1ccc(/C=C/C=C2\C(=O)Nc3ncccc32)cc1` (mixture of isomers), the inhibitory constant (Ki) at Alpha-synuclein [1] is 11.5 nM; in data set [2], 35.1 nM; in data set [3] it was 15.3 nM.

For `COc1ccc(/C=C/C=C2\C(=O)N(Cc3ccccc3)c3ccccc32)cc1` (mixture of isomers), the values for the Ki (at Alpha-synuclein [1]; in data set [2]; in data set [3]) were 72.5 nM, 718 nM and 741 nM, respectively.

Turning to `CN(C)c1ccc(/C=C2\C(=O)N(c3ccccc3)c3ccccc32)cc1` (mixture of isomers), the Ki at Alpha-synuclein [1] came to 290 nM; in data set [2] it was 790 nM; in data set [3] it was 179 nM.

In the case of `CN(C)c1ccc(/C=C/C=C2\C(=O)N(Cc3ccccc3)c3ccccc32)cc1` (mixture of isomers), the inhibition constant (Ki) on Alpha-synuclein [1] was 40.9 nM; in data set [2] it was 374 nM; in data set [3], 358 nM.

With `COc1ccc(CN2C(=O)/C(=C\c3ccc(N(C)C)cc3)c3cccnc32)cc1` (mixture of isomers), the Ki on Alpha-synuclein [1] is 79.5 nM; in data set [2], 853 nM; in data set [3], 113 nM.

In the case of `COc1ccc(CN2C(=O)/C(=C/C=C/c3ccc([N+](=O)[O-])cc3)c3ccccc32)cc1OC`, the figures for the Ki (at Alpha-synuclein [1]; in data set [2]; in data set [3]) were 53.3 nM, 630 nM and 130 nM, respectively.

Turning to `CN(C)c1ccc(/C=C/C=C2\C(=O)N(Cc3ccncc3)c3ccccc32)cc1`, the Ki at Alpha-synuclein [1] was determined as 92 nM; in data set [2] it was 188 nM.

Take `COc1ccc(CN2C(=O)/C(=C\C=C\c3ccc([N+](=O)[O-])cc3)c3ccccc32)cc1`: the Ki came out at 12.9 nM on Alpha-synuclein [1], 72.4 nM in data set [2] and 131 nM in data set [3].

As to `O=C1/C(=C/c2ccc([N+](=O)[O-])cc2)c2ccccc2N1Cc1ccccc1`, the Ki at Alpha-synuclein [1] turned out to be 959 nM; in data set [2] it was 1410 nM; in data set [3], 695 nM.

Turning to `COc1ccc(CN2C(=O)/C(=C\c3ccc(N(C)C)cc3)c3ccccc32)cc1` (mixture of isomers), the Ki at Alpha-synuclein [1] stood at 114 nM; in data set [2], 432 nM; in data set [3] it was 251 nM.

For `COc1cccc(CN2C(=O)/C(=C\C=C\c3ccc([N+](=O)[O-])cc3)c3ccccc32)c1`, the Ki on Alpha-synuclein [1] is 3.8 nM; in data set [2], 229 nM; in data set [3], 110 nM.

For `O=C1Nc2ccccc2/C1=C/c1ccc([N+](=O)[O-])cc1`, the Ki worked out at 347 nM on Alpha-synuclein [1], 362 nM in data set [2] and 325 nM in data set [3].

Consider `CN(C)c1ccc(/C=C/C=C2\C(=O)N(Cc3ccccc3)c3ncccc32)cc1` (mixture of isomers), for which the Ki at Alpha-synuclein [1] was 68.3 nM; in data set [2] it was 257 nM; in data set [3], 85.1 nM.

Consider `O=C1Nc2ccccc2/C1=C/C=C/c1ccccc1` (mixture of isomers), for which the figures for the Ki (at Alpha-synuclein [1]; in data set [2]; in data set [3]) were 207 nM, 522 nM and 267 nM, respectively.

On to `O=C1/C(=C\C=C\c2ccc([N+](=O)[O-])cc2)c2ccccc2N1Cc1ccc(OCCF)cc1`, for which the Ki came to 2.1 nM on Alpha-synuclein [1], 80.1 nM in data set [2] and 142 nM in data set [3]. The log partition coefficient (logP) in data set [5] amounted to 4.18.

For the compound `CN(C)c1ccc(/C=C2\C(=O)N(Cc3ccncc3)c3ccccc32)cc1`, the inhibition constant Ki worked out at 150 nM on Alpha-synuclein [1] and 364 nM in data set [2].

As to `CN(C)c1ccc(/C=C2\C(=O)N(Cc3ccccc3)c3ccccc32)cc1`, the inhibition constant Ki on Alpha-synuclein [1] came out at 144 nM; in data set [2], 798 nM; in data set [3], 260 nM.

As for `O=C1Nc2ccccc2/C1=C/C=C/c1ccc([N+](=O)[O-])cc1`, the inhibition constant Ki on Alpha-synuclein [1] was determined as 14.6 nM; in data set [2], 27.1 nM; in data set [3] it was 36.2 nM.

As to `CCOC(=O)N1C(=O)/C(=C\c2ccc(N(C)C)cc2)c2ccccc21` (mixture of isomers), the Ki turned out to be 343 nM at Alpha-synuclein [1], 1120 nM in data set [2] and 140 nM in data set [3].

On to `COc1ccc(CN2C(=O)/C(=C/C=C/c3ccc([N+](=O)[O-])cc3)c3ccccc32)cc1`, for which the Ki on Alpha-synuclein [1] was determined as 81.9 nM; in data set [2], 318 nM; in data set [3] it was 138 nM.

In the case of `CN(C)c1ccc(/C=C2\C(=O)Nc3ccccc32)cc1` (mixture of isomers), the figures for the Ki (on Alpha-synuclein [1]; in data set [2]; in data set [3]) were 84.4 nM, 261 nM and 91.6 nM, respectively.

`COc1ccc(CN2C(=O)/C(=C\C=C\c3ccc([N+](=O)[O-])cc3)c3ccccc32)cc1OC`: the Ki on Alpha-synuclein [1] came out at 3.5 nM; in data set [2], 152 nM; in data set [3] it was 73.6 nM.

As to `CN(C)c1ccc(/C=C/C=C2\C(=O)Nc3ccc(O)cc32)cc1` (mixture of isomers), the values for the inhibition constant Ki (on Alpha-synuclein [1]; in data set [2]; in data set [3]) were 54 nM, 48 nM and 37.1 nM, respectively.

For `CN(C)c1ccc(/C=C/C=C2\C(=O)N(Cc3ccc([N+](=O)[O-])cc3)c3ccccc32)cc1` (mixture of isomers), the figures for the Ki (at Alpha-synuclein [1]; in data set [2]; in data set [3]) were 4.2 nM, 90 nM and 92.4 nM, respectively.

Consider `CN(C)c1ccc(/C=C2\C(=O)N(C)c3ccccc32)cc1` (mixture of isomers), for which the Ki at Alpha-synuclein [1] was determined as 508 nM; in data set [2], 618 nM; in data set [3] it was 155 nM.

Take `O=C1Nc2ccccc2/C1=C\C=C\c1ccc([N+](=O)[O-])cc1`: the Ki at Alpha-synuclein [1] worked out at 211 nM; in data set [2] it was 209 nM; in data set [3], 60 nM.

Consider `COc1ccc(/C=C/C=C2\C(=O)Nc3ccccc32)cc1` (mixture of isomers), for which the results for the inhibition constant Ki (on Alpha-synuclein [1]; in data set [2]; in data set [3]) were 61.1 nM, 169 nM and 126 nM, respectively.

Regarding `CN(C)c1ccc(/C=C2\C(=O)N(Cc3ccccc3)c3ncccc32)cc1` (mixture of isomers), the inhibition constant Ki on Alpha-synuclein [1] came to 350 nM; in data set [2], 859 nM; in data set [3], 190 nM.

`O=C1/C(=C\C=C\c2ccc([N+](=O)[O-])cc2)c2ccccc2N1Cc1ccc(OCC[18F])cc1`: the Kd at Alpha-synuclein [6] was determined as 8.9 nM; in data set [7], 271 nM; in data set [8], 50 nM.

As to `O=C1/C(=C\C=C\c2ccc([N+](=O)[O-])cc2)c2ccccc2N1Cc1ccccc1`, the inhibition constant Ki at Alpha-synuclein [1] was found to be 25 nM; in data set [2], 121 nM; in data set [3] it was 214 nM.

`O=C1/C(=C/C=C/c2ccc([N+](=O)[O-])cc2)c2ccccc2N1Cc1ccccc1`: the values for the Ki (at Alpha-synuclein [1]; in data set [2]; in data set [3]) were 193 nM, 590 nM and 235 nM, respectively.

For the compound `CN(C)c1ccc(/C=C/C=C2\C(=O)N(C)c3ccccc32)cc1` (mixture of isomers), the Ki on Alpha-synuclein [1] was 63.7 nM; in data set [2] it was 229 nM; in data set [3] it was 56 nM.

Consider `CN(C)c1ccc(/C=C/C=C2\C(=O)N(Cc3ccc(N)cc3)c3ccccc32)cc1` (mixture of isomers), for which the Ki came to 43.6 nM at Alpha-synuclein [1], 131 nM in data set [2] and 98.9 nM in data set [3].

Take `CN(C)c1ccc(/C=C2\C(=O)Nc3ccc(O)cc32)cc1` (mixture of isomers): the Ki at Alpha-synuclein [1] stood at 407 nM; in data set [2], 212 nM; in data set [3], 94.8 nM.

As to `CN(C)c1ccc(/C=C2\C(=O)Nc3ncccc32)cc1` (mixture of isomers), the Ki was determined as 124 nM at Alpha-synuclein [1], 191 nM in data set [2] and 40 nM in data set [3].

Regarding `O=C1/C(=C\c2ccc([N+](=O)[O-])cc2)c2ccccc2N1Cc1ccccc1`, the Ki on Alpha-synuclein [1] came to 483 nM; in data set [2], 1760 nM; in data set [3], 460 nM.

On to `COc1ccc(CN2C(=O)/C(=C\C=C\c3ccc(N(C)C)cc3)c3ccccc32)cc1` (mixture of isomers), for which the Ki turned out to be 54.6 nM on Alpha-synuclein [1], 240 nM in data set [2] and 130 nM in data set [3].

By Ki is commonly meant the equilibrium dissociation constant of an inhibitor or competing ligand from its target. What is called logP is the decadic logarithm of the partition coefficient of the neutral form, usually between octanol and water. The low end stands for lower lipophilicity, the high end for higher lipophilicity. In general, Kd refers to the free concentration of one partner at which half of the binding sites on the other are occupied at equilibrium, for simple one-to-one binding.
